Measurements published in the kinase profiling compilation of Christmann-Franck et al. (2016).

Assays:
[1] = biological target: MAP2K3 (human) (UniProt P46734); experiment: KINOMEscan competition binding; settings: compound 10.0 µM
[2] = biological target: PIM1 (human) (UniProt P11309); experiment: KINOMEscan competition binding; settings: compound 10.0 µM
[3] = biological target: PIM3 (human) (UniProt Q86V86); experiment: KINOMEscan competition binding; settings: compound 10.0 µM
[4] = biological target: PLK3 (human) (UniProt Q9H4B4); experiment: KINOMEscan competition binding; settings: compound 10.0 µM
[5] = biological target: GAK (human) (UniProt O14976); experiment: KINOMEscan competition binding; settings: compound 10.0 µM
[6] = biological target: TTK (human) (UniProt P33981); experiment: KINOMEscan competition binding; settings: compound 10.0 µM
Chain of TTK (human) (P33981 whole entry, looked up): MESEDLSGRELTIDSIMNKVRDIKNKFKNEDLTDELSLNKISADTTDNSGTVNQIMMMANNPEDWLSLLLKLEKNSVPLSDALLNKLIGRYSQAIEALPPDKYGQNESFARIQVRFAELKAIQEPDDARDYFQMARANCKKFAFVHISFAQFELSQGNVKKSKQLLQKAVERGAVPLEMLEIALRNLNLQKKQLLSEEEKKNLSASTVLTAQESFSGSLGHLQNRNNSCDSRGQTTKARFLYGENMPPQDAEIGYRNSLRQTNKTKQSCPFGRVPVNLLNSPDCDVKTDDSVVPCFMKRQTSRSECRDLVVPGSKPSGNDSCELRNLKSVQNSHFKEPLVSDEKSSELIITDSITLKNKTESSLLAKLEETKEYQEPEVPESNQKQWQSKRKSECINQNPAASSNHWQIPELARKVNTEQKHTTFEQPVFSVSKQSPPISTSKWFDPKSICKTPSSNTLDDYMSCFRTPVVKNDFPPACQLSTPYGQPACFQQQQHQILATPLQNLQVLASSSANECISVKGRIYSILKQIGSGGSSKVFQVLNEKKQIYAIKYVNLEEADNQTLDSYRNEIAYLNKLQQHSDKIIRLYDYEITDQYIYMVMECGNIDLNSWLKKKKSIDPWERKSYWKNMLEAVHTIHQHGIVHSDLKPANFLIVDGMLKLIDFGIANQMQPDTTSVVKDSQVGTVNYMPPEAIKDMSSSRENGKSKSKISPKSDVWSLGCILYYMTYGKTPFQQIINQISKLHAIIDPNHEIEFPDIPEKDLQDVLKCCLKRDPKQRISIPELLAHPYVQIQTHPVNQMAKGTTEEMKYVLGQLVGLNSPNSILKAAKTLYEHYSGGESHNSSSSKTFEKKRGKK

[7] = biological target: PLK4 (human) (UniProt O00444); experiment: KINOMEscan competition binding; settings: compound 10.0 µM
[8] = biological target: PTK2 (human) (UniProt Q05397); experiment: KINOMEscan competition binding; settings: compound 10.0 µM
[9] = biological target: PLK1 (human) (UniProt P53350); experiment: KINOMEscan competition binding; settings: compound 10.0 µM
Chain of PLK1 (human) (P53350 whole entry, looked up): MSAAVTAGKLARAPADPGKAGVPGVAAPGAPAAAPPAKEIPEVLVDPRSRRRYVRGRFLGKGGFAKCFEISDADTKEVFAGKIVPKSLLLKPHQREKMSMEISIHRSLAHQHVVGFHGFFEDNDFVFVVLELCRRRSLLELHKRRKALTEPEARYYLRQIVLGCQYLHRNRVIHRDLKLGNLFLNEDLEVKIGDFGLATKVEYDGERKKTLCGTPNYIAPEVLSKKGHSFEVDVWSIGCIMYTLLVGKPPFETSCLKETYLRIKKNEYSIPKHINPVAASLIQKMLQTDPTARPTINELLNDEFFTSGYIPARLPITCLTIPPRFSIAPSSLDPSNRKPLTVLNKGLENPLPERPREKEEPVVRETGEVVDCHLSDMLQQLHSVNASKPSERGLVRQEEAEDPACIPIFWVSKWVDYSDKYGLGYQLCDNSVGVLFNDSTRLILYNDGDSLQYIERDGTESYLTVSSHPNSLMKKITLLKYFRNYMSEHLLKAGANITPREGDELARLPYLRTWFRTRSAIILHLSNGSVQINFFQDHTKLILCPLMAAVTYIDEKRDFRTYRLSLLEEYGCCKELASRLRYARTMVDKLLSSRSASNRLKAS

[10] = biological target: STK33 (human) (UniProt Q9BYT3); experiment: KINOMEscan competition binding; settings: compound 10.0 µM
[11] = biological target: FLT3 (human) (UniProt P36888); experiment: KINOMEscan competition binding; settings: compound 10.0 µM
[12] = biological target: RPS6KA4 KD2 (human) (UniProt O75676); experiment: KINOMEscan competition binding; settings: compound 10.0 µM
[13] = biological target: PIM2 (human) (UniProt Q9P1W9); experiment: SelectScreen, TR FRET
Chain of PIM2 (human) (Q9P1W9 whole entry, looked up): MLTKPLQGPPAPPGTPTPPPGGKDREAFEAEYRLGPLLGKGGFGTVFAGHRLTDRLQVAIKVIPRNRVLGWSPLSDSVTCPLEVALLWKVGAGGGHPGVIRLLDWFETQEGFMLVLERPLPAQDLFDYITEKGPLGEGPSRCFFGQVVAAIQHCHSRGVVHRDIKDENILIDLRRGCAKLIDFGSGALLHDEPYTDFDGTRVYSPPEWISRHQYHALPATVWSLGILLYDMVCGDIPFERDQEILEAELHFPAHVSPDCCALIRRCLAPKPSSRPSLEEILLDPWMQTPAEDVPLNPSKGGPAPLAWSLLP

[14] = biological target: PIM1 (human) (UniProt P11309); experiment: SelectScreen, TR FRET
[15] = biological target: ULK2 (human) (UniProt Q8IYT8); experiment: KINOMEscan competition binding; settings: compound 10.0 µM
[16] = biological target: PIK3CG (human) (UniProt P48736); experiment: KINOMEscan competition binding; settings: compound 10.0 µM
[17] = biological target: CDK16 (human) (UniProt Q00536); experiment: KINOMEscan competition binding; settings: compound 10.0 µM
[18] = biological target: MYLK (human) (UniProt Q15746); experiment: KINOMEscan competition binding; settings: compound 10.0 µM
Chain of MYLK (human) (Q15746 whole entry, looked up): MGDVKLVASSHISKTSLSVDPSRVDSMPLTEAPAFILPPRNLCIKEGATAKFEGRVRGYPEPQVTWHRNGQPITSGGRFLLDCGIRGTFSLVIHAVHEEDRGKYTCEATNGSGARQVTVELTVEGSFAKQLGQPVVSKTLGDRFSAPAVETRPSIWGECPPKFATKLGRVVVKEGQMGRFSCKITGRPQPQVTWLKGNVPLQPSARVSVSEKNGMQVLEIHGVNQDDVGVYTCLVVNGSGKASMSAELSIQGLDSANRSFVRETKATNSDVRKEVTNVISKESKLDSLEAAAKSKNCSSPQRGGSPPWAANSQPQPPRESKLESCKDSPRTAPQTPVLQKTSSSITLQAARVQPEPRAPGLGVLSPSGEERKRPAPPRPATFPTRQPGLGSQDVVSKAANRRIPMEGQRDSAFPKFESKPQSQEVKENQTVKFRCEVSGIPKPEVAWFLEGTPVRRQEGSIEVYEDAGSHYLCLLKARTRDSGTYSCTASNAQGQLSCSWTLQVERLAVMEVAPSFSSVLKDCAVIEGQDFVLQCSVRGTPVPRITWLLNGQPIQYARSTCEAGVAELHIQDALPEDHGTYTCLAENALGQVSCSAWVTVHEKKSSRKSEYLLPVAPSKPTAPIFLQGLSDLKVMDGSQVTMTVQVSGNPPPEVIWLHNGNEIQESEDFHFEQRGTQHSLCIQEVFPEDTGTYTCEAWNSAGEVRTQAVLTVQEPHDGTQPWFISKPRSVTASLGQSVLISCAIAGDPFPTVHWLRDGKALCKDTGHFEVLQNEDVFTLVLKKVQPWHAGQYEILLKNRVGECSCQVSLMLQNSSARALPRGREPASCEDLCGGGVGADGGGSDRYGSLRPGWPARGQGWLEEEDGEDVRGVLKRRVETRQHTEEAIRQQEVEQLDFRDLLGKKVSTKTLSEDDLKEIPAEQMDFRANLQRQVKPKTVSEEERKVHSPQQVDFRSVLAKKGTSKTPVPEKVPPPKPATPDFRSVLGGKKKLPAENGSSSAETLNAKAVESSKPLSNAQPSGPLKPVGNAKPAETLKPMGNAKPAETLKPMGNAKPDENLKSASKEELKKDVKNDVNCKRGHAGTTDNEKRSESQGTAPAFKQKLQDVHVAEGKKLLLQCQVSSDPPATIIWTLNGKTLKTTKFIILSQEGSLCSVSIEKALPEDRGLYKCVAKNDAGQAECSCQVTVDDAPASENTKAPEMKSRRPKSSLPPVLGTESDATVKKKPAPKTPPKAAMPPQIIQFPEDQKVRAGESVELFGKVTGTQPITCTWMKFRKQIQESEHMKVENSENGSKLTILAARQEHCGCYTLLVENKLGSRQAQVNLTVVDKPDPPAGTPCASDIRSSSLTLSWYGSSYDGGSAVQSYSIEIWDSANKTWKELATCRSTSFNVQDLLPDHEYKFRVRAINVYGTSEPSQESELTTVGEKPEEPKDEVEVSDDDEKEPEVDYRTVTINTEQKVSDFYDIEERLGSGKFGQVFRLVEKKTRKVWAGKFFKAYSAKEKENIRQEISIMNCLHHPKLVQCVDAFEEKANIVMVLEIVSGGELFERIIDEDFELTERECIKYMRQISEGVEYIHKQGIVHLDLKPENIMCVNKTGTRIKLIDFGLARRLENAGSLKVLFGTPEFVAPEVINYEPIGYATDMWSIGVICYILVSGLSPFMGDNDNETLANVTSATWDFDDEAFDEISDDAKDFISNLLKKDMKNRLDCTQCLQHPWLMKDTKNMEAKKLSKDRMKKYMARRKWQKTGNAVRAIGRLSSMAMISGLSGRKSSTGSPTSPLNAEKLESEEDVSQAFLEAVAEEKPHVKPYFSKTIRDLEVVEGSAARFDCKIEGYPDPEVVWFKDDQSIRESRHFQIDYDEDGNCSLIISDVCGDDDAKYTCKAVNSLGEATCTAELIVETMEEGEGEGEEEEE

[19] = biological target: MAPK7 (human) (UniProt Q13164); experiment: KINOMEscan competition binding; settings: compound 10.0 µM
[20] = biological target: ACVR2B (human) (UniProt Q13705); experiment: KINOMEscan competition binding; settings: compound 10.0 µM
[21] = biological target: DAPK2 (human) (UniProt Q9UIK4); experiment: KINOMEscan competition binding; settings: compound 10.0 µM
[22] = biological target: STK17A (human) (UniProt Q9UEE5); experiment: KINOMEscan competition binding; settings: compound 10.0 µM
Chain of STK17A (human) (Q9UEE5 whole entry, looked up): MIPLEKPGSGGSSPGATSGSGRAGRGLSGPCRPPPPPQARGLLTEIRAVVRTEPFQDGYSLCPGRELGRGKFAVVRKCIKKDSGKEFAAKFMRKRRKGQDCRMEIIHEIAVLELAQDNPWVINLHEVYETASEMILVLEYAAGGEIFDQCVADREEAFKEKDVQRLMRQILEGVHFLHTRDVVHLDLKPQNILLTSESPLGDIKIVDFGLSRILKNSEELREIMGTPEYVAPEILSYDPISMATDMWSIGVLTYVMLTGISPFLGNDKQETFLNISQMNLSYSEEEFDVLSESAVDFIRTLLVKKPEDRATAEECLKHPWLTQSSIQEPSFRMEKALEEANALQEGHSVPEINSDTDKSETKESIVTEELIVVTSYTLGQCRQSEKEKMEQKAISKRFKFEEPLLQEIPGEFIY

[23] = biological target: TGFBR2 (human) (UniProt P37173); experiment: KINOMEscan competition binding; settings: compound 10.0 µM
[24] = biological target: STK17B (human) (UniProt O94768); experiment: KINOMEscan competition binding; settings: compound 10.0 µM
Chain of STK17B (human) (O94768 whole entry, looked up): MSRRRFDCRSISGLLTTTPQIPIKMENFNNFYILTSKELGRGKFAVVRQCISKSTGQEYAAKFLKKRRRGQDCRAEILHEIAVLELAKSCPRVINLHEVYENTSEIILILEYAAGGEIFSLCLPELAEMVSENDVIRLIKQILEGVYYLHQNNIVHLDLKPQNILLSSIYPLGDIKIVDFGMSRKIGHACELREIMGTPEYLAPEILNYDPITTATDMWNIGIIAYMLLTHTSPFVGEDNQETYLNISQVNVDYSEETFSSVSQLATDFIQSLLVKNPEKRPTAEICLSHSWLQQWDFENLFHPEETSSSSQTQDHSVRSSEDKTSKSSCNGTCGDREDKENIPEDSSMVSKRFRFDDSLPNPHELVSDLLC

[25] = biological target: TAOK1 (human) (UniProt Q7L7X3); experiment: KINOMEscan competition binding; settings: compound 10.0 µM
[26] = biological target: GSK3A (human) (UniProt P49840); experiment: KINOMEscan competition binding; settings: compound 10.0 µM
[27] = biological target: PIM2 (human) (UniProt Q9P1W9); experiment: KINOMEscan competition binding; settings: compound 10.0 µM
[28] = biological target: CLK1 (human) (UniProt P49759); experiment: KINOMEscan competition binding; settings: compound 10.0 µM
[29] = biological target: HIPK1 (human) (UniProt Q86Z02); experiment: KINOMEscan competition binding; settings: compound 10.0 µM
[30] = biological target: MAPK15 (human) (UniProt Q8TD08); experiment: KINOMEscan competition binding; settings: compound 10.0 µM
[31] = biological target: CLK4 (human) (UniProt Q9HAZ1); experiment: KINOMEscan competition binding; settings: compound 10.0 µM
[32] = biological target: CHUK (human) (UniProt O15111); experiment: KINOMEscan competition binding; settings: compound 10.0 µM
[33] = biological target: RIOK2 (human) (UniProt Q9BVS4); experiment: KINOMEscan competition binding; settings: compound 10.0 µM
[34] = biological target: DCLK2 (human) (UniProt Q8N568); experiment: KINOMEscan competition binding; settings: compound 10.0 µM
[35] = biological target: TNK1 (human) (UniProt Q13470); experiment: KINOMEscan competition binding; settings: compound 10.0 µM
[36] = biological target: DCLK1 (human) (UniProt O15075); experiment: KINOMEscan competition binding; settings: compound 10.0 µM
[37] = biological target: CAMKK2 (human) (UniProt Q96RR4); experiment: KINOMEscan competition binding; settings: compound 10.0 µM
[38] = biological target: RPS6KA1 KD2 (human) (UniProt Q15418); experiment: KINOMEscan competition binding; settings: compound 10.0 µM
[39] = biological target: RPS6KA6 KD2 (human) (UniProt Q9UK32); experiment: KINOMEscan competition binding; settings: compound 10.0 µM
[40] = biological target: RPS6KA2 KD2 (human) (UniProt Q15349); experiment: KINOMEscan competition binding; settings: compound 10.0 µM
[41] = test system: EGFR (human), P00533 [G719S]; experiment: KINOMEscan competition binding; settings: compound 10.0 µM
[42] = biological target: CSNK2A2 (human) (UniProt P19784); experiment: KINOMEscan competition binding; settings: compound 10.0 µM
[43] = biological target: DAPK1 (human) (UniProt P53355); experiment: KINOMEscan competition binding; settings: compound 10.0 µM
[44] = biological target: TYK2 JH2 pseudokinase (human) (UniProt P29597); experiment: KINOMEscan competition binding; settings: compound 10.0 µM

## CN1C(=N)NC(=O)/C1=C/c1ccc(-c2ccc(S(N)(=O)=O)cc2)o1
[1]
  kinase still bound, per cent of control: 11%
[2]
  kinase still bound, per cent of control: 21%
[3]
  kinase still bound, per cent of control: 7.4%

## CCOc1cc(N2CCC(O)CC2)ccc1Nc1ncc2c(n1)N(C1CCCC1)CCC(=O)N2C
[4]
  kinase still bound, per cent of control: 15%
[5]
  kinase still bound, per cent of control: 2%
[6]
  kinase still bound, per cent of control: 3.2%
[7]
  kinase still bound, per cent of control: 27%
[8]
  kinase still bound, per cent of control: 24%
[9]
  kinase still bound, per cent of control: 4.3%
[10]
  kinase still bound, per cent of control: 32%
[11]
  kinase still bound, per cent of control: 0%

## NC1=N/C(=C\c2ccc(-c3ccc(S(N)(=O)=O)cc3)o2)C(=O)N1
[12]
  kinase still bound, per cent of control: 14%
[1]
  kinase still bound, per cent of control: 13%
[2]
  kinase still bound, per cent of control: 9.5%
[3]
  kinase still bound, per cent of control: 6%

## N=C1NC(=O)/C(=C/c2ccc(-c3cccc4ccccc34)o2)S1
[13]
  IC50: 1.2 µM
[14]
  IC50: 2.17 µM

## NS(=O)(=O)c1ccc(-c2ccc(C=C3C(=O)c4ccccc4C3=O)o2)cc1
[15]
  kinase still bound, per cent of control: 22%

## NS(=O)(=O)c1ccc(-c2ccc(/C=C3\SC(=S)NC3=O)o2)cc1
[7]
  kinase still bound, per cent of control: 14%
[16]
  kinase still bound, per cent of control: 22%
[17]
  kinase still bound, per cent of control: 10%
[2]
  kinase still bound, per cent of control: 1.8%
[3]
  kinase still bound, per cent of control: 2.2%
[13]
  IC50: 0.177 µM
[14]
  IC50: 0.305 µM

## CC(C)Oc1cc(C(=O)N2CCC(N3CCN(C)CC3)CC2)ccc1Nc1ncc2c(n1)N(C1CCCC1)[C@@H]1CCC[C@@H]1C(=O)N2C
[18]
  kinase still bound, per cent of control: 18%
[9]
  kinase still bound, per cent of control: 24%
[19]
  kinase still bound, per cent of control: 4.8%

## N=C1NC(=O)/C(=C/c2ccc(-c3ccc4c(C(=O)Nc5cccc(C(F)(F)F)c5)cccc4c3)o2)S1
[13]
  IC50: 3.42 µM
[14]
  IC50: > 10 µM

## N=C1NC(=O)/C(=C/c2ccc(-c3ccc(C(=O)Nc4ccc(N5CCNCC5)cc4)cc3)o2)S1
[13]
  IC50: 0.214 µM
[14]
  IC50: 0.151 µM

## Cc1cn(-c2cc(NC(=O)c3cccc4cc(-c5ccc(/C=C6\SC(=O)NC6=O)o5)ccc34)cc(C(F)(F)F)c2)cn1
[13]
  IC50: 1.43 µM
[14]
  IC50: 5.63 µM

## CCN1CCN(Cc2cc(NC(=O)c3cccc4cc(-c5ccc(/C=C6\SC(=N)NC6=O)o5)ccc34)cc(C(F)(F)F)c2)CC1
[13]
  IC50: 0.814 µM
[14]
  IC50: 0.774 µM

## CN1C(=N)NC(=O)/C1=C/c1ccc(-c2cncc3ccccc23)o1
[13]
  IC50: 3.06 µM
[14]
  IC50: 3.56 µM

## N=C1NC(=O)/C(=C/c2ccc(-c3ccc(Cl)cc3)o2)S1
[20]
  kinase still bound, per cent of control: 25%
[21]
  kinase still bound, per cent of control: 33%
[1]
  kinase still bound, per cent of control: 5.6%
[22]
  kinase still bound, per cent of control: 1.8%
[23]
  kinase still bound, per cent of control: 10%
[24]
  kinase still bound, per cent of control: 2.1%
[25]
  kinase still bound, per cent of control: 11%
[26]
  kinase still bound, per cent of control: 7.8%
[27]
  kinase still bound, per cent of control: 1.4%
[17]
  kinase still bound, per cent of control: 14%
[28]
  kinase still bound, per cent of control: 34%
[29]
  kinase still bound, per cent of control: 0.2%
[2]
  kinase still bound, per cent of control: 9.2%
[30]
  kinase still bound, per cent of control: 1.4%
[3]
  kinase still bound, per cent of control: 3.9%
[31]
  kinase still bound, per cent of control: 30%
[13]
  IC50: 7.83 µM
[14]
  IC50: 0.895 µM

## NS(=O)(=O)c1ccc(-c2ccc(/C=C3\NC(=S)NC3=O)o2)cc1
[32]
  kinase still bound, per cent of control: 32%

## COc1cc(C(=O)NC2CCC(O)CC2)ccc1Nc1ncc2c(n1)N(C1CCCC1)[C@@H]1CCC[C@@H]1C(=O)N2C (stereo partly specified)
[4]
  kinase still bound, per cent of control: 0.9%
[5]
  kinase still bound, per cent of control: 28%
[18]
  kinase still bound, per cent of control: 1.7%
[6]
  kinase still bound, per cent of control: 32%
[7]
  kinase still bound, per cent of control: 4.3%
[1]
  kinase still bound, per cent of control: 0.3%
[33]
  kinase still bound, per cent of control: 0.5%
[34]
  kinase still bound, per cent of control: 17%
[22]
  kinase still bound, per cent of control: 0%
[24]
  kinase still bound, per cent of control: 0%
[9]
  kinase still bound, per cent of control: 0%
[35]
  kinase still bound, per cent of control: 14%
[19]
  kinase still bound, per cent of control: 14%
[36]
  kinase still bound, per cent of control: 8.2%
[37]
  kinase still bound, per cent of control: 27%
[10]
  kinase still bound, per cent of control: 34%

## CC(C)Oc1cc(N2CCC(N(C)C)CC2)ccc1Nc1ncc2c(n1)N1CCC[C@H]1CC(=O)N2C
[18]
  kinase still bound, per cent of control: 26%
[6]
  kinase still bound, per cent of control: 12%
[38]
  kinase still bound, per cent of control: 34%
[36]
  kinase still bound, per cent of control: 7.4%
[39]
  kinase still bound, per cent of control: 24%
[40]
  kinase still bound, per cent of control: 9.4%

## CC(C)Oc1cc(N2CCC(O)CC2)ccc1Nc1ncc2c(n1)N1CCC[C@H]1CC(=O)N2C
[4]
  kinase still bound, per cent of control: 16%
[12]
  kinase still bound, per cent of control: 32%
[6]
  kinase still bound, per cent of control: 5%
[9]
  kinase still bound, per cent of control: 21%

## CN1C(=N)NC(=O)/C1=C/c1ccc(-c2cccc3ccccc23)o1
[22]
  kinase still bound, per cent of control: 33%
[24]
  kinase still bound, per cent of control: 32%
[26]
  kinase still bound, per cent of control: 14%
[27]
  kinase still bound, per cent of control: 2.6%
[2]
  kinase still bound, per cent of control: 27%
[3]
  kinase still bound, per cent of control: 9.6%
[13]
  IC50: 9.21 µM
[14]
  IC50: > 10 µM

## CS(=O)(=O)Nc1ccc(-c2cccc(/C=C3\SC(=N)NC3=O)n2)cc1
[1]
  kinase still bound, per cent of control: 21%
[25]
  kinase still bound, per cent of control: 26%
[27]
  kinase still bound, per cent of control: 9.2%
[17]
  kinase still bound, per cent of control: 10%
[41]
  kinase still bound, per cent of control: 16%
[29]
  kinase still bound, per cent of control: 0.4%
[2]
  kinase still bound, per cent of control: 23%
[30]
  kinase still bound, per cent of control: 22%
[3]
  kinase still bound, per cent of control: 13%

## O=C1NC(=S)S/C1=C\c1ccc(-c2csc3ccccc23)o1
[13]
  IC50: 0.375 µM
[14]
  IC50: 0.722 µM

## O=C1NC(=O)/C(=C/c2ccc(-c3ccc(C(=O)Nc4ccc(N5CCNCC5)cc4)cc3)o2)S1
[42]
  kinase still bound, per cent of control: 21%
[5]
  kinase still bound, per cent of control: 26%
[18]
  kinase still bound, per cent of control: 27%
[22]
  kinase still bound, per cent of control: 20%
[43]
  kinase still bound, per cent of control: 34%
[24]
  kinase still bound, per cent of control: 0.65%
[16]
  kinase still bound, per cent of control: 17%
[27]
  kinase still bound, per cent of control: 0.75%
[29]
  kinase still bound, per cent of control: 1.1%
[44]
  kinase still bound, per cent of control: 14%
[2]
  kinase still bound, per cent of control: 1.4%
[3]
  kinase still bound, per cent of control: 1.2%
[13]
  IC50: 0.133 µM
[14]
  IC50: 0.246 µM
